Consider 47 molecules from ChEMBL document CHEMBL3045228, “QSAR study of a series of acyl coenzyme A (CoA): cholesterol acyltransferase inhibitors using genetic function approximation” (Med Chem Res, 2011).

pIC50: −log10 of the molar value.

The nature of this assay: Inhibition of Acyl-coenzyme A:cholesterol acyltransferase (unknown origin) assessed as intracellular cholesterol esterification by cell based assay. The conditions noted are these: Homo sapiens; for pIC50: read-out: IC50; for IC50: read-out: pIC50 (converted).

A word on the pIC50: it is −log10 of the IC50, conventionally taken in molar units. `COc1ccc(NC(NCCCCCCCCc2ccc(CCC(C)C)cc2)=C2C(=O)OC(C)(C)OC2=O)c(OC)c1`: the pIC50 is 5.52 and the IC50 is 3000 nM.

As for `CCCCCC(C)N(Cc1ccc(CC(C)C)cc1)C(Nc1ccc(OC)cc1OC)=C1C(=O)OC(C)(C)OC1=O` (centres undefined), the pIC50 was 6.62 and the IC50 was 240 nM.

For `CCCCCC(C)N(Cc1ccc(CC(C)C)cc1)C(Nc1ccc(N(C)C)cc1C)=C1C(=O)OC(C)(C)OC1=O` (centres undefined), the pIC50 was 6.46 and the IC50 is 350 nM.

Turning to `COc1cc(NC(NCCCCCCCCc2ccc(OCCC(C)C)cc2)=C2C(=O)OC(C)(C)OC2=O)cc(OC)c1OC`, the pIC50 was 5.46 and the IC50 is 3500 nM.

In the case of `CCCCCCC(CCCCCC)N(Cc1ccc(CC(C)C)cc1)C(Nc1ccc(N(C)C)cc1)=C1C(=O)OC(C)(C)OC1=O`, the pIC50 was 7.36 and the IC50 is 44 nM.

Turning to `COc1ccc(NC(=C2C(=O)OC(C)(C)OC2=O)N(Cc2ccc(CC(C)(C)C)cc2)CC2CCCC2c2ccccc2)c(OC)c1` (centres undefined), the pIC50 is 6.54 and the IC50 is 290 nM.

With `CCCCCC(C)N(Cc1ccc(OC(C)CCC)cc1)C(Nc1ccc(OC)cc1OC)=C1C(=O)OC(C)(C)OC1=O` (centres undefined), the pIC50 is 6.27 and the IC50 was 540 nM.

For the molecule `CC(C)CCCC(C)N(Cc1ccc(CC(C)C)cc1)C(Nc1ccc(N(C)C)cc1)=C1C(=O)OC(C)(C)OC1=O` (centres undefined), the negative-log IC50 (pIC50) is 6.57 and the IC50 is 270 nM.

As to `COc1ccc(NC(=C2C(=O)OC(C)(C)OC2=O)N(Cc2ccc(C(C)(C)C)cc2)C(C)CCCC(C)C)c(OC)c1` (centres undefined), the pIC50 is 6.64 and the IC50 was 230 nM.

Turning to `COc1ccc(NC(NCc2ccc(C(C)(C)C)cc2)=C2C(=O)OC(C)(C)OC2=O)c(OC)c1`, the pIC50 was 6.59 and the IC50 was 260 nM.

`COc1cc(NC(NCCCCCCCCc2ccc(C(C)(C)C)cc2)=C2C(=O)OC(C)(C)OC2=O)cc(OC)c1OC`: the pIC50 is 5.55 and the IC50 is 2800 nM.

As for `CCCCC(CC)N(Cc1ccc(CC(C)(C)C)cc1)C(Nc1ccc(N(C)C)cc1)=C1C(=O)OC(C)(C)OC1=O` (centres undefined), the pIC50 is 6.72 and the IC50 was 640 nM.

In the case of `CCCCCC(C)N(Cc1ccc(OCCC(C)C)cc1)C(Nc1ccc(N(C)C)cc1)=C1C(=O)OC(C)(C)OC1=O` (centres undefined), the negative logarithm of the IC50 (pIC50) was 6.68 and the IC50 was 210 nM.

For `CCCCCC(C)N(Cc1ccc(CC(C)(C)C)cc1)C(Nc1ccc(N(C)C)cc1C)=C1C(=O)OC(C)(C)OC1=O` (centres undefined), the pIC50 was 6.59 and the IC50 is 260 nM.

Turning to `CC(C)(C)Cc1ccc(CCCCCCCNC(Nc2cc(C(C)(C)C)c(O)c(C(C)(C)C)c2)=C2C(=O)OC(C)(C)OC2=O)cc1`, the pIC50 was 6.62 and the IC50 was 240 nM.

For `COc1ccc(NC(=C2C(=O)OC(C)(C)OC2=O)N(Cc2ccc(CC(C)C)cc2C)C(CO[SiH](C)C)CC(C)C)c(OC)c1` (centres undefined), the pIC50 was 6.28 and the IC50 is 530 nM.

Regarding `COc1ccc(NC(NCCCCCCCCc2ccc(C(C)(C)C)cc2)=C2C(=O)OC(C)(C)OC2=O)c(OC)c1`, the pIC50 was 6.05 and the IC50 was 899 nM.

As for `CCCCCC(C)N(Cc1ccc(OCC(C)C)cc1)C(Nc1ccc(OC)cc1OC)=C1C(=O)OC(C)(C)OC1=O` (centres undefined), the pIC50 was 6.26 and the IC50 was 550 nM.

Consider `CC(C)CCc1ccc(CN(C(Nc2ccc(N(C)C)cc2)=C2C(=O)OC(C)(C)OC2=O)C(CC(C)C)CC(C)C)cc1`, for which the pIC50 was 5.89 and the IC50 was 1300 nM.

`CCCCCC(C)N(Cc1ccc(C(C)(C)C)cc1)C(Nc1ccc(N(C)C)cc1)=C1C(=O)OC(C)(C)OC1=O` (centres undefined): the pIC50 is 6.60 and the IC50 was 250 nM.

As for `CC(C)Cc1ccc(CN(C(Nc2ccc(N(C)C)cc2)=C2C(=O)OC(C)(C)OC2=O)C(C)CCCC(C)(C)O)cc1` (centres undefined), the pIC50 was 5.28 and the IC50 was 5200 nM.

Regarding `Cc1cc(N(C)C)cc(C)c1NC(NCCCCCCCCc1ccc(C(C)(C)C)cc1)=C1C(=O)OC(C)(C)OC1=O`, the pIC50 is 6.01 and the IC50 is 979 nM.

On to `COc1ccc(NC(=C2C(=O)OC(C)(C)OC2=O)N(Cc2ccc(CCC(C)C)cc2)C(CC(C)C)CC(C)C)c(OC)c1`, for which the pIC50 was 5.89 and the IC50 was 1300 nM.

Turning to `CCCCCC(C)N(Cc1ccc(CC(C)(C)C)cc1)C(Nc1c(C)cc(N(C)C)cc1C)=C1C(=O)OC(C)(C)OC1=O` (centres undefined), the pIC50 is 6.42 and the IC50 was 380 nM.

In the case of `CCCCCCOc1ccc(NC(NCCCCCCCCc2ccc(C(C)(C)C)cc2)=C2C(=O)OC(C)(C)OC2=O)cc1`, the pIC50 was 6.30 and the IC50 is 500 nM.

As to `CCCCCC(C)N(Cc1ccc(CC(C)(C)C)cc1)C(Nc1ccc(C)cc1C)=C1C(=O)OC(C)(C)OC1=O` (centres undefined), the pIC50 is 6.31 and the IC50 was 490 nM.

Take `COc1ccc(NC(NCCc2ccccc2)=C2C(=O)OC(C)(C)OC2=O)c(OC)c1`: the pIC50 was 5.55 and the IC50 was 2800 nM.

As for `COc1ccc(NC(NCCCCCCCCc2ccc(CC(C)C)cc2)=C2C(=O)OC(C)(C)OC2=O)c(OC)c1`, the pIC50 was 6.04 and the IC50 was 910 nM.

For the molecule `CCCCCc1ccc(CN(C(Nc2ccc(OC)cc2OC)=C2C(=O)OC(C)(C)OC2=O)C(C)CCCCC)cc1` (centres undefined), the pIC50 was 6.44 and the IC50 was 360 nM.

In the case of `CN(C)c1ccc(NC(NCCCCCCCCc2ccc(C(C)(C)C)cc2)=C2C(=O)OC(C)(C)OC2=O)cc1`, the pIC50 was 5.96 and the IC50 was 1100 nM.

With `CC(C)CCOc1ccc(CCCCCCCCNC(Nc2ccc(N(C)C)cc2)=C2C(=O)OC(C)(C)OC2=O)cc1`, the pIC50 was 6.43 and the IC50 was 370 nM.

Regarding `CCCCCC(C)N(Cc1ccc(CCC(C)C)cc1)C(Nc1ccc(N(C)C)cc1C)=C1C(=O)OC(C)(C)OC1=O` (centres undefined), the pIC50 is 6.80 and the IC50 was 160 nM.

`CCCCCc1ccc(CN(C(Nc2ccc(N(C)C)cc2C)=C2C(=O)OC(C)(C)OC2=O)C(C)CCCCC)cc1` (centres undefined): the pIC50 was 6.17 and the IC50 was 242 nM.

For the molecule `CCCCCc1ccc(CN(C(Nc2ccc(N(C)C)cc2)=C2C(=O)OC(C)(C)OC2=O)C(C)CCCCC)cc1` (centres undefined), the pIC50 was 6.59 and the IC50 was 260 nM.

Consider `CCCCCC(C)N(Cc1ccc(CC(C)(C)C)cc1)C(Nc1ccc(OC)cc1OC)=C1C(=O)OC(C)(C)OC1=O` (centres undefined), for which the pIC50 was 6.08 and the IC50 is 830 nM.

With `CCCCOc1ccc(NC(=C2C(=O)OC(C)(C)OC2=O)N(Cc2ccc(C(C)(C)C)cc2)C(C)CCCC(C)C)cc1` (centres undefined), the pIC50 was 6.16 and the IC50 was 690 nM.

Take `COc1ccc(NC(NCCCCCCCCCCCc2ccc(C(C)(C)C)cc2)=C2C(=O)OC(C)(C)OC2=O)c(OC)c1`: the pIC50 was 5.64 and the IC50 is 2300 nM.

For `CC1(C)OC(=O)C(=C(NCCCCCCCCc2ccc(C(C)(C)C)cc2)Nc2ccc(Oc3ccccc3)cc2)C(=O)O1`, the pIC50 is 6.04 and the IC50 was 920 nM.

Take `COc1ccc(NC(=C2C(=O)OC(C)(C)OC2=O)N(Cc2ccc(CC(C)C)cc2)C(C)CCCC(C)C)c(OC)c1` (centres undefined): the pIC50 was 6.43 and the IC50 was 370 nM.

For `CCCCCCOc1ccc(NC(=C2C(=O)OC(C)(C)OC2=O)N(Cc2ccc(CC(C)C)cc2)C(C)CCCCC)cc1` (centres undefined), the pIC50 was 6.39 and the IC50 was 410 nM.

For `CCCCCC(C)N(Cc1ccc(C(C)(C)C)cc1)C(Nc1cc(OC)c(OC)c(OC)c1)=C1C(=O)OC(C)(C)OC1=O` (centres undefined), the pIC50 is 6.11 and the IC50 is 769 nM.

On to `COc1cc(OC)c(NC(NCCCCCCCCc2ccc(CC(C)(C)C)cc2)=C2C(=O)OC(C)(C)OC2=O)c(OC)c1`, for which the pIC50 was 6.15 and the IC50 was 700 nM.

Turning to `COc1ccc(NC(NCCCCCCCCc2ccc(OCCC(C)C)cc2)=C2C(=O)OC(C)(C)OC2=O)c(OC)c1`, the pIC50 was 5.82 and the IC50 was 1500 nM.

`CCCCCC(C)N(Cc1ccc(OCC(C)C)cc1)C(Nc1ccc(N(C)C)cc1)=C1C(=O)OC(C)(C)OC1=O` (centres undefined): the pIC50 was 7.05 and the IC50 was 89.9 nM.

Consider `CCCCCC(C)N(Cc1ccc(C(C)(C)C)cc1)C(Nc1ccc(OCCCC)cc1)=C1C(=O)OC(C)(C)OC1=O` (centres undefined), for which the pIC50 was 6.64 and the IC50 is 230 nM.

Regarding `CCCCCc1ccc(CCCCCCCCNC(Nc2ccc(OC)cc2OC)=C2C(=O)OC(C)(C)OC2=O)cc1`, the pIC50 is 6.08 and the IC50 is 839 nM.

Take `CCCCC(CC)N(Cc1ccc(CC(C)(C)C)cc1)C(Nc1ccc(OC)cc1OC)=C1C(=O)OC(C)(C)OC1=O` (centres undefined): the pIC50 was 6.27 and the IC50 was 540 nM.
